Assay [1] concerns the target T1, GalU (Shigella sonnei, UniProt Q3Z0V1).
T1 construct: intact galU gene in pET28a (His-tagged)
Kind of assay: microscale thermophoresis (MST) with purified GalU; supported by malachite green enzyme inhibition ([…] decrease at […]). The format is binding.

Assay [2] addresses T2, GalU (Klebsiella oxytoca, UniProt A0A163UX09).
T2 construct: galUK.o in pET28a
The experiment in a line: microscale thermophoresis (MST) with expressed GalU homolog. The format is binding.

T2 sequence (A0A163UX09 entry or part of it): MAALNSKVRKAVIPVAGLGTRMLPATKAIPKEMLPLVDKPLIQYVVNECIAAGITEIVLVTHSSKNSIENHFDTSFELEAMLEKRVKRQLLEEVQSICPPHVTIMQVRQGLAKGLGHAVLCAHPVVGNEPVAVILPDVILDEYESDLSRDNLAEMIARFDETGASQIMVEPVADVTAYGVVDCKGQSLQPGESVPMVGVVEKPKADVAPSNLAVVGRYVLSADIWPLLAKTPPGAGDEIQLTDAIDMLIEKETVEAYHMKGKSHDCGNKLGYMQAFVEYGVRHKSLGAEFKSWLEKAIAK
T1 sequence (Q3Z0V1 entry or part of it): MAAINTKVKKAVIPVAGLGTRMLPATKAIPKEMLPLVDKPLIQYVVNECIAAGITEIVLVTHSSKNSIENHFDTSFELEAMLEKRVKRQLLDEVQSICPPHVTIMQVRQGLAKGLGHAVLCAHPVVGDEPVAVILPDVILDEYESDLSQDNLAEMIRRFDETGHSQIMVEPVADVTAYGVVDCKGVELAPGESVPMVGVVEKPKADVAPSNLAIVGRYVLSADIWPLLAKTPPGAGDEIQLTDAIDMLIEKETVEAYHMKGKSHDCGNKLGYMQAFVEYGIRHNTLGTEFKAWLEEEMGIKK

In the case of `O=[N+]([O-])c1ccc2c(c1)S(=O)(=O)C=C2` [Stattic], the dissociation constant (Kd) at GalU [1] turned out to be 20 ± 0.35 µM; at GalU [2], 50 ± 0.25 µM.

The values are drawn from publication PMC10734500, “Anti-virulence and bactericidal activities of Stattic against Shigella sonnei” (Applied and Environmental Microbiology, 2023).
